From US20230085307A1, “PYRIDAZINONE COMPOUND AND HERBICIDE” (NISSAN CHEMICAL CORPORATION, priority 2019, published 2023)

Assays:
southern crabgrass [1] = experiment: Test Example 4: herbicidal effect by soil treatment (Table 19, symbol F); type: in vivo, southern crabgrass (Digitaria ciliaris)
Procedure, shortened: (§1)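 Soil-surface application: an emulsion agent diluted with water to the predetermined dose is sprayed uniformly over seeds lying under roughly 1.5 cm of sterilized diluvial soil. Boxes stay in a greenhouse at 25° C. to 30° C. Three weeks later, each species is graded on previously defined criteria.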

green foxtail [2] = experiment: Test Example 4: herbicidal effect by soil treatment (Table 19, symbol G); type: in vivo, green foxtail (Setaria viridis)
Procedure, shortened: as §1

barnyard grass [3] = experiment: Test Example 4: herbicidal effect by soil treatment (Table 19, symbol H); type: in vivo, barnyard grass (Echinochloa crus-galli)
Procedure, shortened: as §1

wild oat [4] = experiment: Test Example 4: herbicidal effect by soil treatment (Table 19, symbol I); type: in vivo, wild oat (Avena fatua)
Procedure, shortened: as §1

blackgrass [5] = experiment: Test Example 4: herbicidal effect by soil treatment (Table 19, symbol J); type: in vivo, blackgrass (Alopecurus myosuroides)
Procedure, shortened: as §1

Italian ryegrass [6] = experiment: Test Example 4: herbicidal effect by soil treatment (Table 19, symbol K); type: in vivo, Italian ryegrass (Lolium multiflorum)
Procedure, shortened: as §1

windgrass [7] = experiment: Test Example 4: herbicidal effect by soil treatment (Table 19, symbol L); type: in vivo, windgrass (Apera spica-venti)
Procedure, shortened: as §1

velvetleaf [8] = experiment: Test Example 4: herbicidal effect by soil treatment (Table 19, symbol M); type: in vivo, velvetleaf (Abutilon theophrasti)
Procedure, shortened: as §1

redroot pigweed [9] = experiment: Test Example 4: herbicidal effect by soil treatment (Table 19, symbol N); type: in vivo, redroot pigweed (Amaranthus retroflexus)
Procedure, shortened: as §1

lambsquarters [10] = experiment: Test Example 4: herbicidal effect by soil treatment (Table 19, symbol O); type: in vivo, lambsquarters (Chenopodium album)
Procedure, shortened: as §1

chickweed [11] = experiment: Test Example 4: herbicidal effect by soil treatment (Table 19, symbol P); type: in vivo, common chickweed (Stellaria media)
Procedure, shortened: as §1

persian speedwell [12] = experiment: Test Example 4: herbicidal effect by soil treatment (Table 19, symbol R); type: in vivo, Persian speedwell (Veronica persica)
Procedure, shortened: as §1

southern crabgrass [13] = experiment: Test Example 5: herbicidal effect by foliage application, plastic box (Table 20, symbol F); type: in vivo, southern crabgrass (Digitaria ciliaris); conditions: foliage application, three weeks after application
Procedure, shortened: (§2)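 Sow seeds spot-wise in sterilized diluvial soil; cover with ~1.5 cm soil. Grow 14 days in greenhouse, 25° C. to 30° C. Spray foliage with emulsion diluted to predetermined amount. Rate effect after 3 weeks.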

green foxtail [14] = experiment: Test Example 5: herbicidal effect by foliage application, plastic box (Table 20, symbol G); type: in vivo, green foxtail (Setaria viridis); conditions: foliage application, three weeks after application
Procedure, shortened: as §2

barnyard grass [15] = experiment: Test Example 5: herbicidal effect by foliage application, plastic box (Table 20, symbol H); type: in vivo, barnyard grass (Echinochloa crus-galli); conditions: foliage application, three weeks after application
Procedure, shortened: as §2

wild oat [16] = experiment: Test Example 5: herbicidal effect by foliage application, plastic box (Table 20, symbol I); type: in vivo, wild oat (Avena fatua); conditions: foliage application, three weeks after application
Procedure, shortened: as §2

blackgrass [17] = experiment: Test Example 5: herbicidal effect by foliage application, plastic box (Table 20, symbol J); type: in vivo, blackgrass (Alopecurus myosuroides); conditions: foliage application, three weeks after application
Procedure, shortened: as §2

Italian ryegrass [18] = experiment: Test Example 5: herbicidal effect by foliage application, plastic box (Table 20, symbol K); type: in vivo, Italian ryegrass (Lolium multiflorum); conditions: foliage application, three weeks after application
Procedure, shortened: as §2

windgrass [19] = experiment: Test Example 5: herbicidal effect by foliage application, plastic box (Table 20, symbol L); type: in vivo, windgrass (Apera spica-venti); conditions: foliage application, three weeks after application
Procedure, shortened: as §2

velvetleaf [20] = experiment: Test Example 5: herbicidal effect by foliage application, plastic box (Table 20, symbol M); type: in vivo, velvetleaf (Abutilon theophrasti); conditions: foliage application, three weeks after application
Procedure, shortened: as §2

redroot pigweed [21] = experiment: Test Example 5: herbicidal effect by foliage application, plastic box (Table 20, symbol N); type: in vivo, redroot pigweed (Amaranthus retroflexus); conditions: foliage application, three weeks after application
Procedure, shortened: as §2

lambsquarters [22] = experiment: Test Example 5: herbicidal effect by foliage application, plastic box (Table 20, symbol O); type: in vivo, lambsquarters (Chenopodium album); conditions: foliage application, three weeks after application
Procedure, shortened: as §2

chickweed [23] = experiment: Test Example 5: herbicidal effect by foliage application, plastic box (Table 20, symbol P); type: in vivo, common chickweed (Stellaria media); conditions: foliage application, three weeks after application
Procedure, shortened: as §2

persian speedwell [24] = experiment: Test Example 5: herbicidal effect by foliage application, plastic box (Table 20, symbol R); type: in vivo, Persian speedwell (Veronica persica); conditions: foliage application, three weeks after application
Procedure, shortened: as §2

Structure (SMILES): CCCC(=O)Oc1c(OC)nn(C)c(=O)c1-c1c(-c2ccc(OC)cc2OC)sc2ccccc12 [1-181]
- F: southern crabgrass, herbicidal effect rating (southern crabgrass [1]; AAH 320 g/ha): 0 (Herbicidal rate of 5% or less (almost no effect))
- G: green foxtail, herbicidal effect rating (green foxtail [2]; AAH 320 g/ha): 0 (Herbicidal rate of 5% or less (almost no effect))
- H: barnyard grass, herbicidal effect rating (barnyard grass [3]; AAH 320 g/ha): 0 (Herbicidal rate of 5% or less (almost no effect))
- I: wild oat, herbicidal effect rating (wild oat [4]; AAH 320 g/ha): 0 (Herbicidal rate of 5% or less (almost no effect))
- J: blackgrass, herbicidal effect rating (blackgrass [5]; AAH 320 g/ha): 0 (Herbicidal rate of 5% or less (almost no effect))
- K: Italian ryegrass, herbicidal effect rating (Italian ryegrass [6]; AAH 320 g/ha): 0 (Herbicidal rate of 5% or less (almost no effect))
- L: windgrass, herbicidal effect rating (windgrass [7]; AAH 320 g/ha): 0 (Herbicidal rate of 5% or less (almost no effect))
- M: velvetleaf, herbicidal effect rating (velvetleaf [8]; AAH 320 g/ha): 0 (Herbicidal rate of 5% or less (almost no effect))
- N: redroot pigweed, herbicidal effect rating (redroot pigweed [9]; AAH 320 g/ha): 0 (Herbicidal rate of 5% or less (almost no effect))
- O: lambsquarters, herbicidal effect rating (lambsquarters [10]; AAH 320 g/ha): 0 (Herbicidal rate of 5% or less (almost no effect))
- P: chickweed, herbicidal effect rating (chickweed [11]; AAH 320 g/ha): 1 (Herbicidal rate of 5% or more and less than 20%)
- R: persian speedwell, herbicidal effect rating (persian speedwell [12]; AAH 320 g/ha): 1 (Herbicidal rate of 5% or more and less than 20%)
- F: southern crabgrass, herbicidal effect (southern crabgrass [13]; AAH 320 g/ha): 0 (Herbicidal rate of 5% or less (almost no effect))
- G: green foxtail, herbicidal effect (green foxtail [14]; AAH 320 g/ha): 0 (Herbicidal rate of 5% or less (almost no effect))
- H: barnyard grass, herbicidal effect (barnyard grass [15]; AAH 320 g/ha): 0 (Herbicidal rate of 5% or less (almost no effect))
- I: wild oat, herbicidal effect (wild oat [16]; AAH 320 g/ha): 0 (Herbicidal rate of 5% or less (almost no effect))
- J: blackgrass, herbicidal effect (blackgrass [17]; AAH 320 g/ha): 0 (Herbicidal rate of 5% or less (almost no effect))
- K: Italian ryegrass, herbicidal effect (Italian ryegrass [18]; AAH 320 g/ha): 0 (Herbicidal rate of 5% or less (almost no effect))
- L: windgrass, herbicidal effect (windgrass [19]; AAH 320 g/ha): 0 (Herbicidal rate of 5% or less (almost no effect))
- M: velvetleaf, herbicidal effect (velvetleaf [20]; AAH 320 g/ha): 0 (Herbicidal rate of 5% or less (almost no effect))
- N: redroot pigweed, herbicidal effect (redroot pigweed [21]; AAH 320 g/ha): 0 (Herbicidal rate of 5% or less (almost no effect))
- O: lambsquarters, herbicidal effect (lambsquarters [22]; AAH 320 g/ha): 1 (Herbicidal rate of 5% or more and less than 20%)
- P: chickweed, herbicidal effect (chickweed [23]; AAH 320 g/ha): 4 (Herbicidal rate of 70% or more and less than 90%)
- R: persian speedwell, herbicidal effect (persian speedwell [24]; AAH 320 g/ha): 1 (Herbicidal rate of 5% or more and less than 20%)

Structure (SMILES): COc1nn(C)c(=O)c(-c2c(-c3cc(F)c(F)c(F)c3)sc3ccccc23)c1O [1-186]
- F: southern crabgrass, herbicidal effect rating (southern crabgrass [1]; AAH 283 g/ha): 0 (Herbicidal rate of 5% or less (almost no effect))
- G: green foxtail, herbicidal effect rating (green foxtail [2]; AAH 283 g/ha): 0 (Herbicidal rate of 5% or less (almost no effect))
- H: barnyard grass, herbicidal effect rating (barnyard grass [3]; AAH 283 g/ha): 0 (Herbicidal rate of 5% or less (almost no effect))
- I: wild oat, herbicidal effect rating (wild oat [4]; AAH 283 g/ha): 0 (Herbicidal rate of 5% or less (almost no effect))
- J: blackgrass, herbicidal effect rating (blackgrass [5]; AAH 283 g/ha): 0 (Herbicidal rate of 5% or less (almost no effect))
- K: Italian ryegrass, herbicidal effect rating (Italian ryegrass [6]; AAH 283 g/ha): 0 (Herbicidal rate of 5% or less (almost no effect))
- L: windgrass, herbicidal effect rating (windgrass [7]; AAH 283 g/ha): 0 (Herbicidal rate of 5% or less (almost no effect))
- M: velvetleaf, herbicidal effect rating (velvetleaf [8]; AAH 283 g/ha): 0 (Herbicidal rate of 5% or less (almost no effect))
- N: redroot pigweed, herbicidal effect rating (redroot pigweed [9]; AAH 283 g/ha): 2 (Herbicidal rate of 20% or more and less than 40%)
- O: lambsquarters, herbicidal effect rating (lambsquarters [10]; AAH 283 g/ha): 0 (Herbicidal rate of 5% or less (almost no effect))
- P: chickweed, herbicidal effect rating (chickweed [11]; AAH 283 g/ha): 5 (Herbicidal rate of 90% or more (almost completely withered))
- R: persian speedwell, herbicidal effect rating (persian speedwell [12]; AAH 283 g/ha): 4 (Herbicidal rate of 70% or more and less than 90%)
- F: southern crabgrass, herbicidal effect (southern crabgrass [13]; AAH 283 g/ha): 0 (Herbicidal rate of 5% or less (almost no effect))
- G: green foxtail, herbicidal effect (green foxtail [14]; AAH 283 g/ha): 0 (Herbicidal rate of 5% or less (almost no effect))
- H: barnyard grass, herbicidal effect (barnyard grass [15]; AAH 283 g/ha): 0 (Herbicidal rate of 5% or less (almost no effect))
- I: wild oat, herbicidal effect (wild oat [16]; AAH 283 g/ha): 0 (Herbicidal rate of 5% or less (almost no effect))
- J: blackgrass, herbicidal effect (blackgrass [17]; AAH 283 g/ha): 0 (Herbicidal rate of 5% or less (almost no effect))
- K: Italian ryegrass, herbicidal effect (Italian ryegrass [18]; AAH 283 g/ha): 0 (Herbicidal rate of 5% or less (almost no effect))
- L: windgrass, herbicidal effect (windgrass [19]; AAH 283 g/ha): 0 (Herbicidal rate of 5% or less (almost no effect))
- M: velvetleaf, herbicidal effect (velvetleaf [20]; AAH 283 g/ha): 3 (Herbicidal rate of 40% or more and less than 70%)
- N: redroot pigweed, herbicidal effect (redroot pigweed [21]; AAH 283 g/ha): 4 (Herbicidal rate of 70% or more and less than 90%)
- O: lambsquarters, herbicidal effect (lambsquarters [22]; AAH 283 g/ha): 2 (Herbicidal rate of 20% or more and less than 40%)
- P: chickweed, herbicidal effect (chickweed [23]; AAH 283 g/ha): 5 (Herbicidal rate of 90% or more (almost completely withered))
- R: persian speedwell, herbicidal effect (persian speedwell [24]; AAH 283 g/ha): 5 (Herbicidal rate of 90% or more (almost completely withered))
